Measurements from article doi:10.1101/2025.10.01.679885v1, “Kinetic and thermodynamic analysis of PKA-R–cAMP interactions in crude media using focal molography” (biorxiv, 2025).
Where two headings read alike, the source gives them in different places.

Key:
[1] = biological target: T1, PKA-R (bovine RIα 92-260; bRIα 92–260) (Bos taurus, UniProt P00514); test: biochemical; set-up: focal molography, PKA-R binding to immobilized cAMP analogue, multi-cycle kinetics, 20 °C, buffer A or 50% human serum; details: 20 °C, mean of three replicates; for koff: read-out: koff [10^-2 s^-1]; for kon: read-out: kon [10^5 M^-1 s^-1]
T1 construct: gene PRKAR1A; expressed in E. coli BL21 (DE3) RIL
Protocol: In order to determine the kinetic parameters of the PKA-R–cAMP interaction, multi cycle kinetic experiments were conducted in both buffer and 50% human serum at 20^◦C with intermediate regeneration. […] The sensor maintained reliable performance in both conditions, with no evidence of non-specific binding in serum. During these experiments, optimal experimental settings were refined iteratively to achieve the ideal flow rates and best transition times between association and dissociation phase. […] To mitigate this, buffer A was supplemented with bovine serum albumin (BSA) at a concentration of 1 mg/mL, which successfully eliminated sample depletion. […] Nevertheless, subtle differences in the association rate constant (kon) and dissociation rate constant (koff) are evident between the two media. These variations likely stem from the complex biological environment in serum, where interactions with additional serum components may slightly alter the binding dynamics. To ensure that the extracted kinetic parameters accurately represent the specific PKA-R–cAMP interaction, only the initial 15% of the dissociation phase was used to determine koff, thereby minimizing the influence of incomplete dissociation due to the residual sticking of the protein to the surface. Table 2 summarizes the triplicate kinetic measurements for both 6-AH-cAMP and 8-AHA-cAMP in buffer and serum. The equilibrium dissociation constants (KD) remain in the nanomolar range under all conditions. In this study, we use focal molography to investigate the interaction between the cAMP binding domain A of the bovine R subunit Iα of PKA (bRIα 92–260) (PKA-R) and cyclic AMP (cAMP) analogues in both buffer and 50% human serum. The R-subunit inhibits protein kinase activity of the catalytic subunit of PKA by direct binding. By quantifying kinetic and thermodynamic parameters across a physiological temperature range, we examine how the biological environment alters the enthalpic and entropic contributions to binding.

[2] = biological target: T1, PKA-R (bovine RIα 92-260; bRIα 92–260); test: biochemical; set-up: Focal molography, immobilised cAMP analogue, PKA-R as analyte; KD at 293 K from van't Hoff fit; details: 293 K, van't Hoff fit
Description: In this study, we use focal molography to investigate the interaction between the cAMP binding domain A of the bovine R subunit Iα of PKA (bRIα 92–260) (PKA-R) and cyclic AMP (cAMP) analogues in both buffer and 50% human serum. The R-subunit inhibits protein kinase activity of the catalytic subunit of PKA by direct binding. By quantifying kinetic and thermodynamic parameters across a physiological temperature range, we examine how the biological environment alters the enthalpic and entropic contributions to binding. […] In order to determine the kinetic parameters of the PKA-R–cAMP interaction, multi cycle kinetic experiments were conducted in both buffer and 50% human serum at 20^◦C with intermediate regeneration. […] The sensor maintained reliable performance in both conditions, with no evidence of non-specific binding in serum. During these experiments, optimal experimental settings were refined iteratively to achieve the ideal flow rates and best transition times between association and dissociation phase. […] To mitigate this, buffer A was supplemented with bovine serum albumin (BSA) at a concentration of 1 mg/mL, which successfully eliminated sample depletion. […] Fig 8 summarizes the resulting thermodynamic parameters calculated at 293 K (see S1 Table for data). For both ligands, binding to PKA-R remains highly favorable in both media, with ΔG values around −10 kcal/mol yielding similar affinities. However, the underlying driving forces appear to differ between buffer and serum. […] In contrast, the interaction in 50% serum becomes more enthalpy driven for both ligands. For 6-AH-cAMP, ΔH drops to −7.4 kcal/mol, while the entropic contribution increases to −2.6 kcal/mol. For 8-AHA-cAMP, the transition is even more striking: binding becomes entirely enthalpy driven in serum, with an unfavorable entropy change (−T ΔS = 1.2 kcal/mol) and a strong enthalpic contribution (ΔH = −11.3 kcal/mol). All thermodynamic parameters were extracted from the linear fits to the van’t Hoff plots via standard error propagation from the covariance matrix returned by the linear regression. Specifically, standard deviations for ΔH, ΔS, and ΔG were calculated using the variances and covariances of the fitted slope and intercept. The reported KD values represent the predicted equilibrium dissociation constants at 293 K based on the linear fits, with associated uncertainties derived from the propagated variance in ln(KD).

[3] = 50% human serum, read-out: KD [nM] Focal Mol. (Serum)
[4] = buffer, read-out: KD [nM] Focal Mol. (Buffer)

T1 sequence (P00514 93-261): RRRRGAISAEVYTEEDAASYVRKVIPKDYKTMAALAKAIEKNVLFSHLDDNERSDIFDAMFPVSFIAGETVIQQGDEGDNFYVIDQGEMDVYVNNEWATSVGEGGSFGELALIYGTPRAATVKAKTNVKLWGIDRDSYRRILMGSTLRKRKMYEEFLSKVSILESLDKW

| Kd ([1]; 50% human serum) [nM] | koff ([1]; 50% human serum) [s⁻¹] | kon ([1]; 50% human serum) [M⁻¹ s⁻¹] | koff ([1]; buffer A) [s⁻¹] | kon ([1]; buffer A) [M⁻¹ s⁻¹] | Kd [2, 3] [nM] | Kd [2, 4] [nM] | Structure (SMILES) |
| --- | --- | --- | --- | --- | --- | --- | --- |
| 25.4 | 0.0122 | 506000 | 0.013 | 448000 | 36.6 ± 0.4 | 29.5 ± 0.9 | NCCCCCCNc1ncnc2c1ncn2[C@@H]1O[C@@H]2COP(=O)(O)O[C@H]2[C@H]1O [6-AH-cAMP, N^6-(6-Aminohexyl)adenosine-3^′,5^′-cyclic monophosphate] |
| 33.9 | 0.0165 | 487000 | 0.0129 | 389000 | 31 ± 3.4 | 25.5 ± 2.5 | NCCCCCCNc1nc2c(N)ncnc2n1[C@@H]1O[C@@H]2COP(=O)(O)O[C@H]2[C@H]1O [8-AHA-cAMP, 8-(6-Aminohexylamino)adenosine-3^′,5^′-cyclic monophosphate] |
